From US12275766B2, “Neoantigen peptide mimics” (Janssen Biotech, Inc., priority 2020, dated 2025) come the findings set out here.

Ends that are not written are not given here.

Experiment [1] has as its target HLA-A*02:01 (Homo sapiens, UniProt P04439, D140Y/D185E/D98H/E176V/E277Q/G131W/G231S/I119V/I121R/I166T/I218V/L300P/L318F/N151K/N90K/P208A/P217A/Q86G/Q94H/R138H/R169H/T345S). It is filed as binding. To be noted: for Average %: average of Exch I and Exch II, relative to exchange control peptide Pos (100%); for Exch I (%): first UV-induced peptide exchange; for Exch I (%) / Exch II (%): absorbance relative to exchange control peptide Pos (100%); for Exch II (%): second UV-induced peptide exchange.

Experiment [2] concerns CD8+ T cells from HLA-02:01+ PBMCs. Put plainly: Frequency of double positive T cells for mimic and mutant tetramers (flow cytometry). The class given is cell-based, human. The procedure: Preparation of PBMCs: Vials of HLA-02:01^+ PBMCs frozen from donors (Hemacare) were removed from LN2 storage and rapidly thawed in a 37° C. water bath. The cells were transferred to a 50 mL conical tube containing 40 mL warm media (RPMI 1640 medium+10% fetal bovine serum (FBS)+1% Penicillin streptomycin solution), spun at 1300 rpm for 5 minutes at room temperature. The cell pellet was resuspended in 2 mL EASYSEP™ buffer and cells were counted using trypan blue live dead marker using a haemocytometer.
Enrichment of CD8+ T cells: To enrich the CD8+ T cells from the PBMCs, EASYSEP™ Human CD8+ T Cell Isolation Kit was used as per the manufacturer's instructions. Post enrichment, the cell pellet was resuspended in Dulbecco's phosphate-buffered saline (DPBS) and cells were counted as above. To determine the viability, LIVE/DEAD™ Fixable Violet Dead Cell Stain Kit was used at 0.5 μL/1×10^6/100 μL cell suspension and incubated at room temperature for 20 minutes. At the end of incubation period, FACS buffer (DPBS+2% FBS) was added and the cells were spun at 1300 rpm for 5 minutes at room temperature. The cell pellet was resuspended in FACS buffer, trypan blue was added, and the cell count was determined using a haemocytometer. The cell density was maintained at 1×10^6/50 μL FACS buffer. 3 μL Fc block was added per 1×10^6 cells and incubated for 10 minutes at room temperature in the dark. At the end of the incubation, mimic tetramer and the corresponding mutant tetramers were added at 3 μL tetramer/1×10^6 cells.
For frequency determination, 2×10^6 cells were used for test samples and 1×10^6 cells were used for control samples where negative tetramers were added in place of the mimic or mutant tetramers. A sample where no tetramers were added was kept as unstained control. The samples were incubated at room temperature for 30 minutes in dark. At the end of incubation period, CD8 antibody was added at 2 μL/1×10^6 cells and the samples were incubated for another 30 minutes at room temperature in dark. At the end of incubation, FACS buffer was added to the samples and the samples were spun at 1300 rpm for 5 minutes. The pellet was resuspended in 5 mL FACS buffer and the cells were spun at 1300 rpm for 5 minutes. The pellet was resuspended in 200 μL FACS buffer and events were acquired using the Novocyte flow cytometer.
The cells were acquired on the Novocyte flow cytometer and gated on forward scatter height (FSC-H) versus side scatter height (SSC-H). The cells high on FSC-H versus SSC-H were gated as lymphocytes. From the lymphocytes, live cells were gated by selecting the pacific blue negative cells on an FSC-H versus Pacific Blue-H plot. From the live cells, single cells were gated on FSC-H versus forward scatter area (FSC-A). CD8+ T cells were gated from the singlets as Alexa Fluor 700 positive cells. For gating phycoerythrin (PE) conjugated tetramer positive cells, the CD8^+ cells were gated on Alexa Fluor 700-H versus PE-H and the double positive cells were considered as CD8+ tetramer+. For gating allophycocyanin (APC) conjugated tetramer positive cells, the CD8^+ cells were gated on Alexa Fluor 700-H versus APC-H and the double positive cells were considered as CD8+tetramer+. All gates were set using the negative tetramers to eliminate non-specific binding. The dual positive cells that were mimic and mutant tetramer positive cells were gated by plotting PE-H versus APC-H within the CD8^+ cells.
(A flow cytometer gives signals particle by particle.)

[3] abbreviates: donor 17042765, frequency of double positive T cells at least 2-fold higher than the background (negative tetramers).
Where [4] appears, read: donor 19054445, frequency of double positive T cells at least 2-fold higher than the background (negative tetramers).

For 6 (LVVVGACGV) [compound 6], in experiment [1], the Average % turned out to be 7.0%, the “Exch I (%)” value is given as 6.5% and the “Exch II (%)” value is recorded as 7.5%.

Turning to 7 (LVVVGAVGV) [compound 7], in experiment [1], the Average % was 4.5%, the “Exch I (%)” value turned out to be 4.3% and the “Exch II (%)” value amounted to 4.6%.

For the substance 99 (NLVPMVATL) [compound 99], in experiment [1], the Average % came to 23.6%, the “Exch I (%)” value was determined as 26.8% and the “Exch II (%)” value amounted to 20.4%.

“Mutant (SEQ ID NO: 2) Mimic (SEQ ID NO: 29): pair of tetramers loaded with mutant YLDCGIHSG (APC) and mimic YLDCGIHSV (PE) (not fully specified; cysteine pairing not given here)”: the “Frequency (%) of double positive T cells within CD8+ compartment of donors” value (“Frequency (%)” below) in experiment [2] (Donor ID 20001476) was 0.075%; in experiment [2] (Donor ID 20001487) it was 0.000%; in experiment [2] (Donor ID 20061357) it was 0.095%; in experiment [2] (Donor ID 20061599), 0.000%; in experiment [2] (Donor ID 20061661), 0.000%; in experiment [2] (Donor ID 20062224), 0.000%. Besides, the “Frequency (%)” value in experiment [2] (Donor ID 20062384) is 0.000%.

Take “Mutant (SEQ ID NO: 3) Mimic (SEQ ID NO: 32): pair of tetramers loaded with mutant YLDSGIHFG (APC) and mimic YLDSGIHFV (PE) (not fully specified)”: the “Frequency (%)” value came out at 0.051% in experiment [2] (Donor ID 20001476); 0.000% in experiment [2] (Donor ID 20001487); 0.007% in experiment [2] (Donor ID 20061357); 0.000% in experiment [2] (Donor ID 20061599); 0.000% in experiment [2] (Donor ID 20061661); 0.000% in experiment [2] (Donor ID 20062224). In addition, in experiment [2] (Donor ID 20062384), the “Frequency (%)” value is recorded as 0.023%.

Turning to “Mutant (SEQ ID NO: 9) Mimic (SEQ ID NO: 45): pair of tetramers loaded with mutant ILNREIDFA (PE) and mimic ILNREIDFV (APC) (not fully specified)”, the “Frequency (%)” value is 0.05% in experiment [2] (Donor ID 17042380); 0.14% in experiment [2] (Donor ID 17042765); 0.01% in experiment [2] (Donor ID 18047563); 0.1% in experiment [2] (Donor ID 19053796); 0.03% in experiment [2] (Donor ID 19054141); 0.01% in experiment [2] (Donor ID 19054183). Also, the figures for the “Frequency (%)” value in experiment [2] (Donor ID 19054445) and in experiment [2] (Donor ID 19054456) were 0.24% and 0.01%, respectively. In addition, the “T-cells positive for mutant-mimic pair” value in experiment [2] (setting [3]), in experiment [2] (donor 19053796) and in experiment [2] (setting [4]) was “positive” in each case.

For the substance “Mutant (SEQ ID NO: 13) Mimic (SEQ ID NO: 59): pair of tetramers loaded with mutant KTYPVQLWV (APC) and mimic KMYPVQLWL (PE) (not fully specified)”, the “Frequency (%)” value came to 0.04% in experiment [2] (Donor ID 17042380); 0.13% in experiment [2] (Donor ID 17042765); 0.01% in experiment [2] (Donor ID 18047563); 0.06% in experiment [2] (Donor ID 19053796); 0.02% in experiment [2] (Donor ID 19054141); 0.01% in experiment [2] (Donor ID 19054183). Moreover, the “Frequency (%)” value is 0.38% in experiment [2] (Donor ID 19054445) and 0% in experiment [2] (Donor ID 19054456). Also, the “T-cells positive for mutant-mimic pair” value in experiment [2] (setting [3]), in experiment [2] (donor 19053796) and in experiment [2] (setting [4]) was “positive” in each case.

In the case of “Mutant (SEQ ID NO: 16) Mimic (SEQ ID NO: 64): pair of tetramers loaded with mutant ALNNMFCQL (PE) and mimic ALNNMFCQV (APC) (not fully specified; cysteine pairing not given here)”, the “Frequency (%)” value in experiment [2] (Donor ID 20001476) worked out at 0.021%; in experiment [2] (Donor ID 20001487) it was 0.000%; in experiment [2] (Donor ID 20061357), 0.002%; in experiment [2] (Donor ID 20061599), 0.000%; in experiment [2] (Donor ID 20061661), 0.000%; in experiment [2] (Donor ID 20062224) it was 0.016%. Also, the “Frequency (%)” value in experiment [2] (Donor ID 20062384) was 0.000%.

Consider “Mutant (SEQ ID NO: 18) Mimic (SEQ ID NO 68): pair of tetramers loaded with mutant QLWVDSTPL (APC) and mimic QLWVDSTPV (PE) (not fully specified)”, for which the “Frequency (%)” value in experiment [2] (Donor ID 17042380) was 0.01%; in experiment [2] (Donor ID 17042765), 0%; in experiment [2] (Donor ID 18047563) it was 0%; in experiment [2] (Donor ID 19053796), 0%; in experiment [2] (Donor ID 19054141) it was 0%; in experiment [2] (Donor ID 19054183), 0%. In addition, the “Frequency (%)” value in experiment [2] (Donor ID 19054445) was 0.01%; in experiment [2] (Donor ID 19054456), 0%. The “T-cells positive for mutant-mimic pair” value in experiment [2] (donor 19053796) was “positive”.

With “Mutant (SEQ ID NO: 22) Mimic (SEQ ID NO: 75): pair of tetramers loaded with mutant LLGRNSFEM (PE) and mimic LLGRNSFEL (APC) (not fully specified)”, the “Frequency (%)” value was 0.000% in experiment [2] (Donor ID 20001476); 0.000% in experiment [2] (Donor ID 20001487); 0.004% in experiment [2] (Donor ID 20061357); 0.000% in experiment [2] (Donor ID 20061599); 0.000% in experiment [2] (Donor ID 20061661); 0.015% in experiment [2] (Donor ID 20062224). Besides, in experiment [2] (Donor ID 20062384), the “Frequency (%)” value stood at 0.000%.

On to “Mutant (SEQ ID NO: 23) Mimic (SEQ ID NO: 78): pair of tetramers loaded with mutant VVPCEPPEV (PE) and mimic VLPCEPPEV (APC) (not fully specified; cysteine pairing not given here)”, for which the “Frequency (%)” value in experiment [2] (Donor ID 20001476) is reported as 0.153%; in experiment [2] (Donor ID 20001487), 0.000%; in experiment [2] (Donor ID 20061357) it was 0.006%; in experiment [2] (Donor ID 20061599) it was 0.000%; in experiment [2] (Donor ID 20061661) it was 0.000%; in experiment [2] (Donor ID 20062224), 0.000%. The “Frequency (%)” value in experiment [2] (Donor ID 20062384) is given as 0.023%.
